# Earlier results in patent publication US10183022B2, “Pharmaceutical composition for treating ulcerative colitis” (EA Pharma Co., Ltd., priority 2014, dated 2019).
# System: administered patients
# Conditions: among the administered patients, intravenous infusion; cited from earlier work
substance,measurement,value
"Infliximab: anti-TNFα antibody, given by intravenous infusion",Patients showing the loss of the response,≤ 70%
